Experimental data taken from patent US20260042731A1, “(2,4-DICHLOROPHENOXY)ACETIC ACID ANALOGS” (CORTEVA AGRISCIENCE LLC, priority 2022, published 2026).
Read-outs that look alike come from different tables or passages of the source.

What was measured:
[1] = tested on: Amaranthus rudis (AMATA), tall water hemp; assay: Postemergence herbicide evaluation, growth of Amaranthus rudis (AMATA); format: in vivo; conditions: Amaranthus tuberculatus, post-emergence, percent reduction in plant size relative to untreated control, read-out: Ave. AMATA; for pest or weed control at 280 g/ha: 280 g ae/ha; for pest or weed control at 560 g/ha: 560 g ae/ha
[2] = tested on: Ambrosia artemisiifolia (AMBEL), common ragweed; assay: Postemergence herbicide evaluation, growth of Ambrosia artemisiifolia (AMBEL); format: in vivo; conditions: Ambrosia artemisiifolia, post-emergence, percent reduction in plant size relative to untreated control, read-out: AVE. AMBEL; for pest or weed control at 280 g/ha: 280 g ae/ha; for pest or weed control at 560 g/ha: 560 g ae/ha
[3] = tested on: Abutilon theophrasti (ABUTH), velvetleaf; assay: Postemergence herbicide evaluation, growth of Abutilon theophrasti (ABUTH); format: in vivo; conditions: Abutilon theophrasti, post-emergence, percent reduction in plant size relative to untreated control, read-out: AVE. ABUTH; for pest or weed control at 280 g/ha: 280 g ae/ha; for pest or weed control at 560 g/ha: 560 g ae/ha
[4] = tested on: Chenopodium album (CHEAL), common lambsquarters; assay: Postemergence herbicide evaluation, growth of Chenopodium album (CHEAL); format: in vivo; conditions: Chenopodium album, post-emergence, percent reduction in plant size relative to untreated control, read-out: Ave. CHEAL; for pest or weed control at 280 g/ha: 280 g ae/ha; for pest or weed control at 560 g/ha: 560 g ae/ha
[5] = tested on: glyphosate resistant Conyza canadensis (L.) (ERICA), horseweed; assay: Postemergence herbicide evaluation, growth of Conyza canadensis (ERICA); format: in vivo; conditions: Erigeron canadensis, post-emergence, percent reduction in plant size relative to untreated control, read-out: Ave. ERICA; for pest or weed control at 280 g/ha: 280 g ae/ha; for pest or weed control at 560 g/ha: 560 g ae/ha
[6] = Volatility of compounds measured by thermogravimetric analysis (TGA); format: physicochemical
[7] = tested on: weeds (ABUTH, AMATA, AMBEL, CHEAL, ERICA); assay: Postemergence herbicide evaluation, overall average % weed control across ABUTH, AMATA, AMBEL, CHEAL, ERICA; format: in vivo; conditions: post-emergence, average over the five weeds, read-out: Overall Ave % Weed Control; for pest or weed control at 280 g/ha: 280 g ae/ha; for pest or weed control at 560 g/ha: 560 g ae/ha

Compound | pest or weed control at 280 g/ha ([1]; 168 h, 7 DAA) | pest or weed control at 560 g/ha ([1]; 168 h, 7 DAA) | pest or weed control at 280 g/ha ([1]; 336 h, 14 DAA) | pest or weed control at 560 g/ha ([1]; 336 h, 14 DAA) | pest or weed control at 280 g/ha ([1]; 504 h, 21 DAA) | pest or weed control at 560 g/ha ([1]; 504 h, 21 DAA) | pest or weed control at 280 g/ha ([2]; 168 h, 7 DAA) | pest or weed control at 560 g/ha ([2]; 168 h, 7 DAA) | pest or weed control at 280 g/ha ([2]; 336 h, 14 DAA) | pest or weed control at 560 g/ha ([2]; 336 h, 14 DAA) | pest or weed control at 280 g/ha ([2]; 504 h, 21 DAA) | pest or weed control at 560 g/ha ([2]; 504 h, 21 DAA) | pest or weed control at 280 g/ha ([3]; 168 h, 7 DAA) | pest or weed control at 560 g/ha ([3]; 168 h, 7 DAA) | pest or weed control at 280 g/ha ([3]; 336 h, 14 DAA) | pest or weed control at 560 g/ha ([3]; 336 h, 14 DAA) | pest or weed control at 280 g/ha ([3]; 504 h, 21 DAA) | pest or weed control at 560 g/ha ([3]; 504 h, 21 DAA) | pest or weed control at 280 g/ha ([4]; 168 h, 7 DAA) | pest or weed control at 560 g/ha ([4]; 168 h, 7 DAA) | other results
O=C(COc1ccc(Cl)cc1Cl)ONC(=O)c1ccc(C(=O)NOC(=O)COc2ccc(Cl)cc2Cl)cc1 [Compound B4] | 68% | 70% | 68% | 78% | 65% | 68% | 58% | 65% | 88% | 84% | 95% | 87% | 70% | 80% | 78% | 73% | 83% | 84% | 63% | 63% | pest or weed control at 280 g/ha ([4]; 336 h, 14 DAA): 70%; pest or weed control at 560 g/ha ([4]; 336 h, 14 DAA): 68%; pest or weed control at 280 g/ha ([4]; 504 h, 21 DAA): 75%; pest or weed control at 560 g/ha ([4]; 504 h, 21 DAA): 65%; pest or weed control at 280 g/ha ([5]; 168 h, 7 DAA): 68%; pest or weed control at 560 g/ha ([5]; 168 h, 7 DAA): 68%; pest or weed control at 280 g/ha ([5]; 336 h, 14 DAA): 85%; pest or weed control at 560 g/ha ([5]; 336 h, 14 DAA): 95%; pest or weed control at 280 g/ha ([5]; 504 h, 21 DAA): 99%; pest or weed control at 560 g/ha ([5]; 504 h, 21 DAA): 100%; TGA Data (rate of weight loss, volatility) [6]: 0.3 µg/min; pest or weed control at 280 g/ha ([7]; 168 h, 7 DAA): 65%; pest or weed control at 560 g/ha ([7]; 168 h, 7 DAA): 69%; pest or weed control at 280 g/ha ([7]; 336 h, 14 DAA): 78%; pest or weed control at 560 g/ha ([7]; 336 h, 14 DAA): 79%; pest or weed control at 280 g/ha ([7]; 504 h, 21 DAA): 83%; pest or weed control at 560 g/ha ([7]; 504 h, 21 DAA): 81%
Cn1c(O)c(C(=O)COc2ccc(Cl)cc2Cl)c2ccccc21 [Compound C1, 2-(2,4-Dichlorophenoxy)-1-(2-hydroxy-1-methyl-1H-indol-3-yl)ethanone] | 63% | 0% | 70% | 0% | 68% | 0% | 48% | 0% | 65% | 0% | 65% | 0% | 68% | 0% | 63% | 0% | 63% | 0% | 68% | 0% | pest or weed control at 280 g/ha ([4]; 336 h, 14 DAA): 78%; pest or weed control at 560 g/ha ([4]; 336 h, 14 DAA): 0%; pest or weed control at 280 g/ha ([4]; 504 h, 21 DAA): 77%; pest or weed control at 560 g/ha ([4]; 504 h, 21 DAA): 0%; pest or weed control at 280 g/ha ([5]; 168 h, 7 DAA): 60%; pest or weed control at 560 g/ha ([5]; 168 h, 7 DAA): 0%; pest or weed control at 280 g/ha ([5]; 336 h, 14 DAA): 85%; pest or weed control at 560 g/ha ([5]; 336 h, 14 DAA): 0%; pest or weed control at 280 g/ha ([5]; 504 h, 21 DAA): 90%; pest or weed control at 560 g/ha ([5]; 504 h, 21 DAA): 0%; TGA Data (rate of weight loss, volatility) [6]: 0.7 µg/min; pest or weed control at 280 g/ha ([7]; 168 h, 7 DAA): 61%; pest or weed control at 560 g/ha ([7]; 168 h, 7 DAA): 0%; pest or weed control at 280 g/ha ([7]; 336 h, 14 DAA): 72%; pest or weed control at 560 g/ha ([7]; 336 h, 14 DAA): 0%; pest or weed control at 280 g/ha ([7]; 504 h, 21 DAA): 72%; pest or weed control at 560 g/ha ([7]; 504 h, 21 DAA): 0%
CN(OC(=O)COc1ccc(Cl)cc1Cl)C(=O)c1ccccc1 [Compound A16, N-(2-(2,4-Dichlorophenoxy)acetoxy)-N-methylbenzamide] | 65% | 83% | 73% | 83% | 65% | 87% | 70% | 78% | 83% | 97% | 88% | 100% | 85% | 88% | 93% | 96% | 94% | 99% | 63% | 68% | pest or weed control at 280 g/ha ([4]; 336 h, 14 DAA): 70%; pest or weed control at 560 g/ha ([4]; 336 h, 14 DAA): 80%; pest or weed control at 280 g/ha ([4]; 504 h, 21 DAA): 68%; pest or weed control at 560 g/ha ([4]; 504 h, 21 DAA): 95%; pest or weed control at 280 g/ha ([5]; 168 h, 7 DAA): 68%; pest or weed control at 560 g/ha ([5]; 168 h, 7 DAA): 75%; pest or weed control at 280 g/ha ([5]; 336 h, 14 DAA): 85%; pest or weed control at 560 g/ha ([5]; 336 h, 14 DAA): 92%; pest or weed control at 280 g/ha ([5]; 504 h, 21 DAA): 93%; pest or weed control at 560 g/ha ([5]; 504 h, 21 DAA): 100%; TGA Data (rate of weight loss, volatility) [6]: 4.3 µg/min; pest or weed control at 280 g/ha ([7]; 168 h, 7 DAA): 70%; pest or weed control at 560 g/ha ([7]; 168 h, 7 DAA): 78%; pest or weed control at 280 g/ha ([7]; 336 h, 14 DAA): 81%; pest or weed control at 560 g/ha ([7]; 336 h, 14 DAA): 89%; pest or weed control at 280 g/ha ([7]; 504 h, 21 DAA): 81%; pest or weed control at 560 g/ha ([7]; 504 h, 21 DAA): 96%
